Molecular target: T1, JAK3 (Homo sapiens, UniProt P52333)
T1 construct: GST; purchased Life Technologies
T1 sequence (P52333 1-1124): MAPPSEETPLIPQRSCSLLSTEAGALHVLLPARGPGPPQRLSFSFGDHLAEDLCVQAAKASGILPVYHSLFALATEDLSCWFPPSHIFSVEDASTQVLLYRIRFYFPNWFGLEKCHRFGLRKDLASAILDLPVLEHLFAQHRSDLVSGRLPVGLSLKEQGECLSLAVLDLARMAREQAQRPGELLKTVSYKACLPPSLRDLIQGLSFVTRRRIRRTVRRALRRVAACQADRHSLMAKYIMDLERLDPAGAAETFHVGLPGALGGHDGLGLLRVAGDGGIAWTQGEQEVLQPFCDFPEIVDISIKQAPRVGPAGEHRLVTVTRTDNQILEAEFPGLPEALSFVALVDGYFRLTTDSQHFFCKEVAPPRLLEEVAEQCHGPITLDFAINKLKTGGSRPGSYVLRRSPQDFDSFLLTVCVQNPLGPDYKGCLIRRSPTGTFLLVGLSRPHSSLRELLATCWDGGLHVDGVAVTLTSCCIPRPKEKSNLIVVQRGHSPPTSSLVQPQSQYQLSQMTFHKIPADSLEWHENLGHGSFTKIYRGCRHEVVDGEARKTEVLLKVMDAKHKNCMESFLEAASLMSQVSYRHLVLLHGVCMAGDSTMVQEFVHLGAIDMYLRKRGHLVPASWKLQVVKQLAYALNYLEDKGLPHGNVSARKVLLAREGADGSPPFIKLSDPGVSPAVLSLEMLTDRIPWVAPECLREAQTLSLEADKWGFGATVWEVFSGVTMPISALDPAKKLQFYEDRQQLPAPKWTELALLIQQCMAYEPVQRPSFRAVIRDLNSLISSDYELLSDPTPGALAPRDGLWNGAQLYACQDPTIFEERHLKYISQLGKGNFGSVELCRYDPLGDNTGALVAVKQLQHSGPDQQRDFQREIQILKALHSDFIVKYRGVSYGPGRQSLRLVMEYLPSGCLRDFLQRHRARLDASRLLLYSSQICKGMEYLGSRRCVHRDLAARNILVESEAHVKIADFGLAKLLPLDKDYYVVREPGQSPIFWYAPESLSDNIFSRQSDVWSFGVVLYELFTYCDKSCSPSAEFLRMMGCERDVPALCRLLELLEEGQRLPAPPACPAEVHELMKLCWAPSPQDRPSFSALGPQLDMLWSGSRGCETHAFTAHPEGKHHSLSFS
Assay: Biochemical JAK kinase assay (LanthaScreen), JAK3
Conditions: converted from pIC50 by Cheng-Prusoff; ATP at Km 1.6 μM; read-out: JAK 3 (pKi) (converted)
Protocol: Assay 1: Biochemical JAK and Tyk2 Kinase Assays A panel of four LanthaScreen JAK biochemical assays (JAK1, 2, 3 and Tyk2) were carried in a common kinase reaction buffer (50 mM HEPES, pH 7.5, 0.01% Brij-35, 10 mM MgCl2, and 1 mM EGTA). Recombinant GST-tagged JAK enzymes and a GFP-tagged STAT1 peptide substrate were obtained from Life Technologies. Serially or discretely diluted compounds were pre-incubated with each of the four JAK enzymes and the substrate in white 384-well microplates (Corning) at ambient temperature for 1 h. ATP was subsequently added to initiate the kinase reactions in 10 μL total volume, with 1% DMSO. […] The plates were allowed to incubate at ambient temperature for 1 h before being read on the EnVision reader (Perkin Elmer). Emission ratio signals (520 nm/495 nm) were recorded and utilized to calculate the percent inhibition values based on DMSO and background controls. For dose-response analysis, percent inhibition data were plotted vs. compound concentrations, and IC50 values were determined from a 4-parameter robust fit model with the Prism software (GraphPad Software). Results were expressed as pIC50 (negative logarithm of IC50) and subsequently converted to pKi (negative logarithm of dissociation constant, Ki) using the Cheng-Prusoff equation.

CCS(=O)(=O)N1[C@@H]2CCC[C@H]1C[C@H](N(C)c1nc(CO)c(F)c(Nc3cc(C)[nH]n3)n1)C2 [Compound (I), (2-(((1R,3s,5S)-9-(ethylsulfonyl)-9-azabicyclo[3.3.1]nonan-3-yl)(methyl)amino)-5-fluoro-6-((5-methyl-1H-pyrazol-3-yl)amino)pyrimidin-4-yl)methanol]
Ki: 0.794 nM
